Results taken from ChEMBL document CHEMBL3882729, “Receptor-type kinase modulators and methods of use” (2009).

What was measured:
Ephrin type-A receptor 2 = Ephrin type-A receptor 2 (Homo sapiens, UniProt P29317); assay: Inhibition of recombinant human N-terminal His6-tagged EphA2 (N598 to R890 residues) expressed in baculovirus using poly-EY as substrate after 180 mins by luciferase coupled chemiluminescence assay
Ephrin type-B receptor 4 = target: T1, Ephrin type-B receptor 4 (Homo sapiens, UniProt P54760); assay: Inhibition of recombinant human N-terminal His6-tagged EphB4 kinase domain (E605 to E890 residues) expressed in baculovirus using poly-AEKY as substrate after 150 mins in presence of gamma33P-ATP by liquid scintillation spectrometry
T1 sequence (P54760 whole entry): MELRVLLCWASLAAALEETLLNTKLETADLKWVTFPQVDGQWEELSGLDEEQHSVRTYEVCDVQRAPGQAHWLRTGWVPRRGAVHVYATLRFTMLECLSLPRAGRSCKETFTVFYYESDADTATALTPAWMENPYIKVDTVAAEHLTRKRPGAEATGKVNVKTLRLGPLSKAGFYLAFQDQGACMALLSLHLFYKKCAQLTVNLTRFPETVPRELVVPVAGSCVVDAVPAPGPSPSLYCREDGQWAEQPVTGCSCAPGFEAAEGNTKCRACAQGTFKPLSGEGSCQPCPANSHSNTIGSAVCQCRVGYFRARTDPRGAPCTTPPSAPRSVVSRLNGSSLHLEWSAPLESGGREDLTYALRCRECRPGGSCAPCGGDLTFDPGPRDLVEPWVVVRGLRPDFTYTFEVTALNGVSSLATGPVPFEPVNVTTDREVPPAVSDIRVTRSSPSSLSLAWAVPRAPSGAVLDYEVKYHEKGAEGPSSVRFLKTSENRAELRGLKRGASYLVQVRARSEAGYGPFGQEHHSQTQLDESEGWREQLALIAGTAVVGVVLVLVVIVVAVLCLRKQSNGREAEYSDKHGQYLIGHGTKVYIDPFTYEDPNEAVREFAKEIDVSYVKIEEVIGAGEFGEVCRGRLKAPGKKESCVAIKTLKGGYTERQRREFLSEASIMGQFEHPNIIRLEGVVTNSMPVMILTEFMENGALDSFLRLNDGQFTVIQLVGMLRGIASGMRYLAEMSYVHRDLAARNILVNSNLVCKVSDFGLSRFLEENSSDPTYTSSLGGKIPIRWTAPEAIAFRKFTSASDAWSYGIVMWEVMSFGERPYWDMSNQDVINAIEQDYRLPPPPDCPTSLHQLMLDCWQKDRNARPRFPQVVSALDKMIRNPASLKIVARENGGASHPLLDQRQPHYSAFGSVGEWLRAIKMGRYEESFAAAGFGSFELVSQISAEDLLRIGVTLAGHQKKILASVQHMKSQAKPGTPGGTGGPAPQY

[1] = target: Receptor tyrosine-protein kinase erbB-2 (Homo sapiens, UniProt P04626); assay: Inhibition of recombinant human N-terminal GST His6-tagged thrombin cleavage site-fused ErbB2 kinase domain (Q679 to V1255 residues) expressed in baculovirus infected insect Sf9 cells using biotinylated poly-EY as substrate after 60 mins by alphascreen assay
[2] = target: Vascular endothelial growth factor receptor 2 (Homo sapiens, UniProt P35968); assay: Inhibition of recombinant human N-terminal GST-fused KDR (D807 to V1356 residues) expressed in baculovirus infected […] insect Sf9 cells using poly-EY as substrate after 240 mins by luciferase coupled chemiluminescence assay
[3] = target: Vascular endothelial growth factor receptor 1 (Homo sapiens, UniProt P17948); assay: Inhibition of recombinant human N-terminal GST-tagged factor 10a cleavage site-fused Flt1 (K784 to I1338 residues) expressed in baculovirus infected insect Sf9 cells using poly-EY as substrate after 120 mins in presence of gamma33P-ATP by liquid scintillation spectrometry
Chain of Vascular endothelial growth factor receptor 1 (P17948 whole entry, the tested form may be a part): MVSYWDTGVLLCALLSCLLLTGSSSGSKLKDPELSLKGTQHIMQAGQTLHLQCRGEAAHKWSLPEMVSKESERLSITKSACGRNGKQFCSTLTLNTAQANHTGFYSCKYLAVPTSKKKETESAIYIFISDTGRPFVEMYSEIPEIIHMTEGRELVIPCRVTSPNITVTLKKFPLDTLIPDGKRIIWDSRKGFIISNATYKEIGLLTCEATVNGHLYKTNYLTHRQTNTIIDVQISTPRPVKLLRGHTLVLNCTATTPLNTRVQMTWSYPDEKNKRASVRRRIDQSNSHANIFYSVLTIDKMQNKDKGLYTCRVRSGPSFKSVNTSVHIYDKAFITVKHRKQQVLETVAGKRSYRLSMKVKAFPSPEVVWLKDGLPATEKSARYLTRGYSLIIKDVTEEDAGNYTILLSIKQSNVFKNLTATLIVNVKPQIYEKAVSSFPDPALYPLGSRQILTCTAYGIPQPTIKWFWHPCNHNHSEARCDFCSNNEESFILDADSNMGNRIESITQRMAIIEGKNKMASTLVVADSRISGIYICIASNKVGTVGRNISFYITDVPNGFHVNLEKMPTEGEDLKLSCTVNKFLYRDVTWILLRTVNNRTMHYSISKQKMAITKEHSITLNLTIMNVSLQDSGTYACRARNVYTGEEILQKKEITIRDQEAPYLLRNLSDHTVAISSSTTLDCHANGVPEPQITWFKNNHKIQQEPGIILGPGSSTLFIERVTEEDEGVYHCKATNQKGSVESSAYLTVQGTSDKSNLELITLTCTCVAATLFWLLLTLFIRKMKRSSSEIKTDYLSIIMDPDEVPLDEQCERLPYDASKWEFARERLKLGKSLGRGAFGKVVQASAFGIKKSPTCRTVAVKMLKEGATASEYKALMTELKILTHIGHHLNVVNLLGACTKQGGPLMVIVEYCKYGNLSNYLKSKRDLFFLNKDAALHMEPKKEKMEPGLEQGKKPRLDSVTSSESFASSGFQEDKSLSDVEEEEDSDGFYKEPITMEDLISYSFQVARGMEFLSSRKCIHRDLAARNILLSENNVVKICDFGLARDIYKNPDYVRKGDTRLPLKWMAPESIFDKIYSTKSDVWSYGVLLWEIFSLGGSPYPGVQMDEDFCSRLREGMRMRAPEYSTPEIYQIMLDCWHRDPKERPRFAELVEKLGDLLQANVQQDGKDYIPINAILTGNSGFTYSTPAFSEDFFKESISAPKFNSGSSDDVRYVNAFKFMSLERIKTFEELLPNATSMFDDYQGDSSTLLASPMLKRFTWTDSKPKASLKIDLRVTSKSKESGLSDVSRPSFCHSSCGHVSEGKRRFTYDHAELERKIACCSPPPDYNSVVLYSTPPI

Chain of Receptor tyrosine-protein kinase erbB-2 (P04626 whole entry, the tested form may be a part): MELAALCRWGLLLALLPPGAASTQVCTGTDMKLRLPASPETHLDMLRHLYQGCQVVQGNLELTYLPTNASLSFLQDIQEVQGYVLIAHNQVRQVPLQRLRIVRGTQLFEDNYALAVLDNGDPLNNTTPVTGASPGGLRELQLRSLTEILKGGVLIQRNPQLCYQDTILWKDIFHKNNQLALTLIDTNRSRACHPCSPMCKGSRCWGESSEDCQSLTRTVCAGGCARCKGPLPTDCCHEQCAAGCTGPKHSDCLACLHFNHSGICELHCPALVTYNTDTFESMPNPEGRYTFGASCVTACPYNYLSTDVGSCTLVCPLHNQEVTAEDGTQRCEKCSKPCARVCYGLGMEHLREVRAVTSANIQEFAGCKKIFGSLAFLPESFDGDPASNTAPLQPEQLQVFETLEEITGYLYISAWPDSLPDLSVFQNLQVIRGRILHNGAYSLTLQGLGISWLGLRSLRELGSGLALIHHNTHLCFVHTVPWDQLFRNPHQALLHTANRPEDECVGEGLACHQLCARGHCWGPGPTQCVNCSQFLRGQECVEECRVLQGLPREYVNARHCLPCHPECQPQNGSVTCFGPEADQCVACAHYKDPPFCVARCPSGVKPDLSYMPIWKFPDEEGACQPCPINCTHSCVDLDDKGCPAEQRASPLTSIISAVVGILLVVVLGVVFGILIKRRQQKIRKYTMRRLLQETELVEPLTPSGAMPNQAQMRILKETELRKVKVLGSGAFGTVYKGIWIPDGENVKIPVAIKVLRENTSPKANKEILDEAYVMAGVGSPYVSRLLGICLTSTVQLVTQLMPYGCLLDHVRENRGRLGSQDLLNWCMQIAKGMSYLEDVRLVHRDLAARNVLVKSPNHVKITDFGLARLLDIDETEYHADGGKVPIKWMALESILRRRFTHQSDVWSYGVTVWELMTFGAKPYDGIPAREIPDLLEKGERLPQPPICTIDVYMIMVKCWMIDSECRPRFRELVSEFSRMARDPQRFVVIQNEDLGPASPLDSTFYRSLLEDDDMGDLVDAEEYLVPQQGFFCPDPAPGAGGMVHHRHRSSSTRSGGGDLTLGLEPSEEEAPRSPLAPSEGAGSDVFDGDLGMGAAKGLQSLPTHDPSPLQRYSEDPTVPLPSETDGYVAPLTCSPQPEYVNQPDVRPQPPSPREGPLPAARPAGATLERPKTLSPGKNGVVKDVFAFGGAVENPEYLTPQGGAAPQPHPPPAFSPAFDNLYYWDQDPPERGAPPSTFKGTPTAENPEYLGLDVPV
Chain of Ephrin type-A receptor 2 (P29317 whole entry, the tested form may be a part): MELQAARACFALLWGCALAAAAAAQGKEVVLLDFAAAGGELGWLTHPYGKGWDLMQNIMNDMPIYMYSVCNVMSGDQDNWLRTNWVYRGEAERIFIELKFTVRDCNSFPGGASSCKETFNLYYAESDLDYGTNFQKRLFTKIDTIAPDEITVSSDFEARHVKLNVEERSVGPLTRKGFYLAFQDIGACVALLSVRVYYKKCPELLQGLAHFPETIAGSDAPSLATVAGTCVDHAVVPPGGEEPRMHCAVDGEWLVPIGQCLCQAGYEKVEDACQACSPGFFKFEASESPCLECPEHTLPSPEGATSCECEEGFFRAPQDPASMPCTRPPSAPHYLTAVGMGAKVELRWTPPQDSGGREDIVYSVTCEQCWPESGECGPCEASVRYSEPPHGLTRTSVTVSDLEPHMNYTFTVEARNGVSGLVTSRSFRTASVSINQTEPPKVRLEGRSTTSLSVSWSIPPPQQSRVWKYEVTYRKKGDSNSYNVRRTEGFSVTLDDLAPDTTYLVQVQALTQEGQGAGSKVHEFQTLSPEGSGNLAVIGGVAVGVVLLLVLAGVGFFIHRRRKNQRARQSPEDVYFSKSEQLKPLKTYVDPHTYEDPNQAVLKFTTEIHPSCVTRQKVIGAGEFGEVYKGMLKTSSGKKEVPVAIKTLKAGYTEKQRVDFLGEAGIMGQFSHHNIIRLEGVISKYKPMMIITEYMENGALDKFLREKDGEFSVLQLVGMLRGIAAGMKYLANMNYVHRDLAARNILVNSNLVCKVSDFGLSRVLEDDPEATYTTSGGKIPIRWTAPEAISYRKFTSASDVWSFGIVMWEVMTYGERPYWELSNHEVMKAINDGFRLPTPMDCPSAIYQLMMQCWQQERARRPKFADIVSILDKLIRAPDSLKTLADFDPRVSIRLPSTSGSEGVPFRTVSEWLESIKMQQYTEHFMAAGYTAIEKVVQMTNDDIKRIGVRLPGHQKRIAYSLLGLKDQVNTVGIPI
Chain of Vascular endothelial growth factor receptor 2 (P35968 whole entry, the tested form may be a part): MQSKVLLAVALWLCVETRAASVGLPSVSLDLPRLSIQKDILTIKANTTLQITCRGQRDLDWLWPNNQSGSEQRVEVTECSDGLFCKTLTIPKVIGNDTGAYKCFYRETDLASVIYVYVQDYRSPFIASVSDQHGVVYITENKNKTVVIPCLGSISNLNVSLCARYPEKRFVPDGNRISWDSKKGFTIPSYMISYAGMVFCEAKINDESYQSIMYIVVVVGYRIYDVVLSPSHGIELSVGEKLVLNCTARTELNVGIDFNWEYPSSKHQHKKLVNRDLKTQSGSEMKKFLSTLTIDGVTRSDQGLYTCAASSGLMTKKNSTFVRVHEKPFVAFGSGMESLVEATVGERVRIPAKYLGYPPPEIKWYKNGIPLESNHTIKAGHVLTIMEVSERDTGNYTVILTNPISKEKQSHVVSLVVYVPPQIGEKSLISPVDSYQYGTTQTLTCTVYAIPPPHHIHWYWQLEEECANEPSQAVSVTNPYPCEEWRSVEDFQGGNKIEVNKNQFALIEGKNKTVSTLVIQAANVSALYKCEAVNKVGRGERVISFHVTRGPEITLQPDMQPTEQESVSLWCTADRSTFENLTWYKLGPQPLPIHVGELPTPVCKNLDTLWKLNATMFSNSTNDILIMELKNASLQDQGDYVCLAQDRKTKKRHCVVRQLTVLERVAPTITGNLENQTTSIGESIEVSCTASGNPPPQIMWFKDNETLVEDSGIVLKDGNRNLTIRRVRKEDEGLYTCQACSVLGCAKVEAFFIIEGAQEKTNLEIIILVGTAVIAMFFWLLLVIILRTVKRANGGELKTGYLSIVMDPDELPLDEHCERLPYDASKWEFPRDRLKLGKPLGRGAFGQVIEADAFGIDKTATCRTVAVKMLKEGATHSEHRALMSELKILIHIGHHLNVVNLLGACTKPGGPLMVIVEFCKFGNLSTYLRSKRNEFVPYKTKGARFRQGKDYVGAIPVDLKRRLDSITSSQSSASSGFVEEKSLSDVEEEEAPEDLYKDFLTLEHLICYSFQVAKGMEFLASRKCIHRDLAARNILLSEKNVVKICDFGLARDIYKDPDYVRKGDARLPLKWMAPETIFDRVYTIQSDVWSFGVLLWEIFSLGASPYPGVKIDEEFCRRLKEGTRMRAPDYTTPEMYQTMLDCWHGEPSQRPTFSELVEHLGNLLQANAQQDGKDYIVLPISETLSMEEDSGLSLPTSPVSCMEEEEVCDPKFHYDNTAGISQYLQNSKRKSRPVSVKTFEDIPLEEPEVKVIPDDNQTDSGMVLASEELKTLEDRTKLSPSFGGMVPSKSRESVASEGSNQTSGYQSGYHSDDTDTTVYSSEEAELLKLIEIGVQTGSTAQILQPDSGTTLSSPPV

SMILES	IC50 (Ephrin type-A receptor 2)	IC50 (Ephrin type-B receptor 4)	IC50 [1]	IC50 [2]	IC50 [3]
COc1cc2c(Nc3ccc(Cl)c(Cl)c3)ncnc2cc1OC1C[C@@H]2CN(C)C[C@@H]2C1 (some centres undefined)	0.05 to 1 µM	0.05 to 1 µM	0.05 to 1 µM	0.05 to 1 µM	1 to 20 µM
COc1cc2c(Nc3ccc(Cl)c(Cl)c3)ncnc2cc1OCc1csc(N2CCN(C)CC2)n1	0.05 to 1 µM	0.05 to 1 µM	0.05 to 1 µM	0.05 to 1 µM	
COc1cc2c(Nc3ccc(Br)c(Cl)c3Cl)ncnc2cc1OC[C@@H]1CO[C@H]2[C@@H]1OC[C@@H]2OC			1 to 20 µM		1 to 20 µM
COc1cc2c(Nc3ccc(Cl)c(Cl)c3)ncnc2cc1OC[C@@H]1CN2CCC[C@H]2CO1	< 0.05 µM	< 0.05 µM	0.05 to 1 µM	< 0.05 µM	0.05 to 1 µM
COc1cc2c(Nc3ccc(Br)c(Cl)c3)ncnc2cc1O[C@H]1CO[C@H]2[C@@H]1OC[C@@H]2N1CCN(C)CC1	1 to 20 µM	0.05 to 1 µM	1 to 20 µM	1 to 20 µM	
COc1cc2c(Nc3ccc(Br)c(Cl)c3)ncnc2cc1O[C@H]1CO[C@H]2[C@@H]1OC[C@@H]2NC(C)=O	1 to 20 µM	0.05 to 1 µM	1 to 20 µM	1 to 20 µM	
COc1cc2c(Nc3ccc(Cl)c(Cl)c3)ncnc2cc1OCCC1CNC(C)(C)CO1 (centres undefined)	0.05 to 1 µM	0.05 to 1 µM	0.05 to 1 µM	0.05 to 1 µM	
CCOc1cc2c(Nc3ccc(Cl)c(Cl)c3)ncnc2cc1OCC1CN(C)CCO1 (centres undefined)	< 0.05 µM	< 0.05 µM	< 0.05 µM	< 0.05 µM	
CN[C@H]1CO[C@H]2[C@@H]1OC[C@@H]2Oc1cc2ncnc(Nc3ccc(Br)c(Cl)c3)c2cc1OC	1 to 20 µM	0.05 to 1 µM	1 to 20 µM	1 to 20 µM	
COc1cc2c(Nc3cc(Cl)c(Br)cc3F)ncnc2cc1OCC1CN(C)C(C)(C)CO1 (centres undefined)	< 0.05 µM	< 0.05 µM	0.05 to 1 µM	< 0.05 µM	

The next lines start with the values.

IC50 (Ephrin type-A receptor 2)	IC50 (Ephrin type-B receptor 4)	IC50 [1]	IC50 [2]	IC50 [3]	SMILES
< 0.05 µM	< 0.05 µM	0.05 to 1 µM	< 0.05 µM	0.05 to 1 µM	COc1cc2c(Nc3ccc(Cl)c(Cl)c3F)ncnc2cc1OC[C@@H]1CN2CCC[C@H]2CO1
0.05 to 1 µM	< 0.05 µM	< 0.05 µM	< 0.05 µM	0.05 to 1 µM	COc1cc2c(Nc3ccc(Cl)c(Cl)c3)ncnc2cc1OCC1CN2CCOCC2CO1 (centres undefined)
0.05 to 1 µM	< 0.05 µM	0.05 to 1 µM	0.05 to 1 µM	0.05 to 1 µM	COc1cc2c(Nc3ccc(F)c(Cl)c3F)ncnc2cc1OC[C@@H]1CN2CCOC[C@H]2CO1
0.05 to 1 µM	0.05 to 1 µM	0.05 to 1 µM	0.05 to 1 µM		COc1cc2c(Nc3ccc(Br)c(Cl)c3F)ncnc2cc1OC[C@@H]1CN(C)CC(=O)N1
0.05 to 1 µM	< 0.05 µM	1 to 20 µM	0.05 to 1 µM	0.05 to 1 µM	COc1cc2c(Nc3ccc(Cl)c(Cl)c3F)ncnc2cc1OC[C@@H]1CN2CCC[C@H]2C(=O)N1C
< 0.05 µM			< 0.05 µM	0.05 to 1 µM	COc1cc2c(Nc3ccc(Cl)c(Cl)c3F)ncnc2cc1OC[C@@H]1CN2CCC[C@@H]2C(=O)N1
0.05 to 1 µM	0.05 to 1 µM	1 to 20 µM	0.05 to 1 µM		COc1cc2c(Nc3ccc(Br)c(Cl)c3F)ncnc2cc1OC[C@@H]1CN(C)CC(=O)N1C
< 0.05 µM	< 0.05 µM	0.05 to 1 µM	0.05 to 1 µM		COc1cc2c(Nc3ccc(Br)c(Cl)c3Cl)ncnc2cc1OCC1CN(C)C(C)(C)CO1 (centres undefined)
0.05 to 1 µM	0.05 to 1 µM	0.05 to 1 µM	< 0.05 µM	0.05 to 1 µM	COc1cc2c(Nc3ccc(Br)c(Cl)c3F)ncnc2cc1OC[C@H]1CN2CCOC[C@H]2CO1
0.05 to 1 µM	< 0.05 µM	1 to 20 µM	0.05 to 1 µM		COc1cc2c(Nc3ccc(Cl)c(Cl)c3C)ncnc2cc1OCC1CN(C)CCO1 (centres undefined)
